In patent US20170050939A1, “SMALL MOLECULE INHIBITORS OF G PROTEIN COUPLED RECEPTOR 6 KINASE POLYPEPTIDES” (Mayo Foundation for Medical Education and Research, priority 2014, published 2017) one finds IC50 data, which are given here for 4 compounds.

pIC50: −log10 of the molar value.

T1 sequence (P43250 whole entry): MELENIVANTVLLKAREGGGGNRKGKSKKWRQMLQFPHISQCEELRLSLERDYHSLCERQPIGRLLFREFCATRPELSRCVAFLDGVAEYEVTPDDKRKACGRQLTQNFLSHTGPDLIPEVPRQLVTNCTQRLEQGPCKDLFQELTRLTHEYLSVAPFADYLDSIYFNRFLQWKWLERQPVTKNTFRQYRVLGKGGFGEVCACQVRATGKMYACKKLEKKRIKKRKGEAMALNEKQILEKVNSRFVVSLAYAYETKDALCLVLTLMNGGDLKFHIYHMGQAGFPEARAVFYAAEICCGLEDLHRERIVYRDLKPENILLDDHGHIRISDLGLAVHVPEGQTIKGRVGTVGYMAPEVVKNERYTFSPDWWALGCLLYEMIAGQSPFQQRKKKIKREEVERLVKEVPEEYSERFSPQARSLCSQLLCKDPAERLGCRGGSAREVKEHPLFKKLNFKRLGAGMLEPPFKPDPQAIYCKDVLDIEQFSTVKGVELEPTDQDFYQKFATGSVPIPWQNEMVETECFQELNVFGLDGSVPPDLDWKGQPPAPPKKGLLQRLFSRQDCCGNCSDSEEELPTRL

The experiment has as its target T1, GRK6, recombinant full-length GST-tagged human protein (Homo sapiens, UniProt P43250).
T1 construct: GRK6, recombinant full-length GST-tagged human protein; GST
The experiment in a line: GRK6 IC50 determination (8-point concentration-response). The class given is biochemical. The text has this: Two hundred forty compounds were further characterized by determining IC50 values in a GRK6 assay. This screen has been previously described in WO 2013/063458, which is incorporated by reference in its entirety herein.
As to `CNC(=O)c1ccc(-c2cc(-c3nnc(SCC(=O)O)[nH]3)cc([N+](=O)[O-])c2)cc1` [Compound 45], the negative-log IC50 (pIC50) was 6.36.
To `O=C(O)CSc1nnc(-c2ccc3ccccc3c2)[nH]1` [Compound 85] belongs 6.05; to `Cc1c(-c2cc(-c3ccc4ccccc4c3)cc(-c3nnc(SCC(=O)O)[nH]3)c2)cnn1C` [Compound 38], 6.42; to `Cc1cn(C)c2ccc(-c3cc(-c4nnc(SCC(=O)O)[nH]4)cc([N+](=O)[O-])c3)cc12` [Compound 230], 6.82.

By pIC50 is commonly meant the IC50 on a negative log10 scale, so that one unit is a factor of ten.
